Laboratory results taken from patent US8703815B2, “Small molecules that covalently modify transthyretin” (The Scripps Research Institute, priority 2009, dated 2014).

Legend:
Assay type in all cases: binding
[1] = target: T1, TTR in human blood plasma (Homo sapiens, UniProt P02766); experiment: Modification of TTR in human blood plasma (immunocapture, RP-HPLC); details: compound 10.8 μM, 24 hours, 37° C.; maximum 50%
T1 construct: RP-HPLC analysis of TTR captured from human plasma; from tissue; host or cells: human blood plasma
Experimental: Compounds 1-4 (10.8 μM) were incubated for 24 hours at 37° C. with human plasma, wherein the TTR concentration is 3.6-5.4 μM.
Furthermore, compound A2 was evaluated to determine its ability to bind selectively to and then react chemoselectively with TTR over the 4000+ other proteins in human blood plasma. Compound A2 (10.8 μM) was incubated with human blood plasma (TTR concentration is 3.6-5.4 μM) for 24 hours at 37° C. before immunoisolating human TTR using a Sepharose® resin-conjugated anti-TTR polyclonal antibody [Purkey et al., Proc. Natl. Acad. Sci. U.S.A. 2001, 98, 5566-5571].
The modification ratio of TTR by kinetic stabilizers in human plasma was evaluated as described [Purkey et al., Proc. Natl. Acad. Sci. U.S.A. 98:5566-5571 (2001)] with minor modifications. Briefly, compounds (7.5 μL of 1.44 mM solution in DMSO) were added to 1 mL of human plasma and incubated at 37° C. for 24 hours on a rocker (30 rpm). A 1:1 (v/v) slurry of unfunctionalized Sepharose® resin in 10 mM Tris, 140 mM NaCl, pH 8.0 (TSA) was added and the solutions were incubated for 1 hour at 4° C. on a rocker plate, followed by brief centrifugation.
Two 400 μL aliquots of the supernatants were added to 300 μL of 1:1 (v:v) slurry of anti-TTR antibody-conjugated Sepharose® resin in TSA. The solutions were gently rocked at 4° C. for 20 minutes (30 rpm), centrifuged, and supernatants were removed. The resin was washed by shaking for 1 minute in 1 mL of TSA solution containing 0.05% saponin (three times) and then 1 mL of TSA solution (twice). The TTR and bound test compound were dissociated from the resin by adding 155 μL of triethylamine (100 mM, pH 11.5) and vortexing for 1 minute. After centrifugation, 135 μL of solution containing test compound and TTR was analyzed by RP-HPLC as described above except that the linear gradients were run from 100:0 to 0:100 A:B for 45 minutes.

[2] = target: T2, WT-TTR (Homo sapiens, UniProt P02766); experiment: Fluorimetric assay with recombinant WT-TTR; details: for increase in fluorescence intensity with WT-TTR vs compound alone in buffer: 24 hours
T2 construct: composed of 127-residue β-sheet-rich subunits; made in house; host or cells: E. coli
Experimental: WT-TTR was expressed in an E. coli expression system and purified as described previously. […] The samples were vortexed, and incubated for 18 h at 25° C. […] The excitation slit was set at 5 nm and the emission slit was set at […]. The samples were excited at 328 nm and the emission spectra were collected from 350 to 550 nm. WT-TTR was expressed and purified from an E. coli expression system as described previously. [Lashuel et al., Biochemistry 1999, 38:13560]. […] The samples were vortexed, and incubated for 18 hours at 25° C. […] The excitation slits was set at 5 nm and the emission slits was set at […]. The samples were excited at 328 nm and the emission spectra were collected from 330 to 550 nm (FIG. 4). The time-dependent fluorescence changes were monitored in similar manner (FIG. 5).

[3] = target: T3, K15A-TTR (Homo sapiens, UniProt P02766, K35A); experiment: Fluorimetric assay with recombinant K15A-TTR
T3 construct: composed of 127-residue β-sheet-rich subunits; made in house
Experimental: [The source words this procedure for another variant and says it was used here with some conditions changed.] The excitation spectra are shown with dotted traces (λmax=328 nm), and emission spectra are adjacently (λmax=384 nm). Very low fluorescence resulted from 328 nm excitation of stilbene Compounds 4 or 2 alone in buffer (FIGS. 4A and 4B; traces substantially on the X-axis).
WT-TTR was expressed in an E. coli expression system and purified as described previously. [Lashuel et al., Biochemistry 1999, 38, 13560-13573] The covalent TTR modifiers (A1 or A2) or the non-covalent TTR ligand B2 (5 μL of a 1.44 mM solution in DMSO, final concentration: 7.2 μM) were added to 1 mL of a solution of WT-TTR homotetramer (0.2 mg/mL, 3.6 μM) in 10 mM phosphate, 100 mM KCl and 1 mM EDTA (pH 7.0 phosphate buffer) in a 2 mL Eppendorf tube. The samples were vortexed, and incubated for 18 h at 25° C. The fluorescence changes were monitored using a Varian Cary 50 spectrofluorometer at 20° C. in a 1 cm path length quartz cell. The excitation slit was set at 5 nm and the emission slit was set at […]. The samples were excited at 328 nm and the emission spectra were collected from 350 to 550 nm.
WT-TTR was expressed and purified from an E. coli expression system as described previously. [Lashuel et al., Biochemistry 1999, 38:13560]. The covalent modifiers (Compounds 4 or 2) or the non-covalent TTR ligand Compound B2 (5 μL of a 1.44 mM solution in DMSO) were added to 1 mL of a solution of WT-TTR (0.2 mg/mL, 3.6 μM) in 10 mM phosphate, 100 mM KCl and 1 mM EDTA (pH 7.0) in a 2 mL Eppendorf tube. The samples were vortexed, and incubated for 18 hours at 25° C. The fluorescence changes were monitored using a Varian Cary 50 spectrofluorometer at 20° C. in a 1 cm path length quartz cell. The excitation slits was set at 5 nm and the emission slits was set at […]. The samples were excited at 328 nm and the emission spectra were collected from 330 to 550 nm (FIG. 4). The time-dependent fluorescence changes were monitored in similar manner (FIG. 5).

% Modification of TTR subunits in Human Blood Plasma [1]	fluorescence after incubation with WT-TTR (in words) ([2]; phosphate buffer pH 7, 18 hours)	fluorescence upon binding to K15A-TTR (in words) [3]	t50 of conjugation to WT-TTR by fluorescence ([2]; WT-TTR […], compound 7.2 μM)	Compound	increase in fluorescence intensity with WT-TTR vs compound alone in buffer ([2]; WT-TTR […], compound 7.2 μM)
48%	bright blue fluorescence	no significant fluorescence increase	–	Cc1cc(/C=C/c2cc(C(=O)Sc3ccc(F)cc3)cc(N(C)C)c2)cc(C)c1O [Compound A2, (E)-S-4-fluorophenyl 3-(dimethylamino)-5-(4-hydroxy-3,5-dimethylstyryl)-benzothioate]	–
48% (±1.3%)	–	remain non-fluorescent	22 min	Cc1cc(/C=C/c2cccc(C(=O)Sc3ccccc3)c2)cc(C)c1O [Compound 2, (E)-S-phenyl 3-(4-hydroxy-3,5-dimethylstyryl)benzothioate]	about 1100 fold

Compound	% Modification of TTR subunits in Human Blood Plasma [1]	fluorescence after incubation with WT-TTR (in words) ([2]; phosphate buffer pH 7, 18 hours)	fluorescence upon binding to K15A-TTR (in words) [3]	t50 of conjugation to WT-TTR by fluorescence ([2]; WT-TTR […], compound 7.2 μM)	increase in fluorescence intensity with WT-TTR vs compound alone in buffer ([2]; WT-TTR […], compound 7.2 μM)
Cc1cc(/C=C/c2cccc(C(=O)Oc3ccc(F)cc3)c2)cc(C)c1O [Compound 4, (E)-4-fluorophenyl 3-(4-hydroxy-3,5-dimethylstyryl)benzoate]	–	–	remain non-fluorescent	–	about 560 fold
